Data on 4 compounds can be found in patent US20250101446A1, “METHOD FOR GENETIC TRANSFORMATION OF PLANT ORGANELLE GENOME AND USES THEREOF” (Solar Grants Biotechnology Inc., priority 2022, published 2025).

Series [1] deals with human metastatic breast cancer cell line MDA-MB-231. The series is described as follows: IL-6 secretion by MDA-MB-231 cells (P1 stimulation, plantakine pre-incubation; ELISA). Type of series: cell-based. The method, then: IL-6 secretion by the human metastatic breast cancer cell line MDA-MB-231 into the conditioned media was measured by ELISA. The cells were pre-incubated for 3 h in the presence of plant-produced recombinant IL-38 or IL-37b at the indicated concentrations (ng/ml) prior to stimulation with peptide P1 (10 mM). PBS (1×) was added to the control. Shown are the average results of 3 independent experiments. ** P<0.01; * P<0.05, compared with the control.
Correct folding of plant-produced IL-38 and IL-37b anti-inflammatory cytokines was assessed by enzyme-linked immunosorbent assay (ELISA) using the DuoSet Human IL-38/IL-1F10 kit (R&D systems) and the Human IL-37/IL-1F7 uncoated ELISA kit (Invitrogen), respectively, following the instructions of the manufacturers. Secreted IL-6 was assessed using the Human IL-6 Uncoated ELISA kit (Invitrogen).
In general terms: An ELISA detects its analyte on a solid surface through an enzyme-linked reagent.

The test system of series [2] is human NSCLC cell line NCI-H1792. The series is described as follows: IL-6 secretion by NCI-H1792 cells incubated with NSP10-derived peptides (ELISA). Type of series: cell-based. To be noted: peptide 24 h.
A short description of series [3]: in vitro. To be noted: human.
The subject of series [4] is SARS-COV-2. It counts as cell-based. To be noted: at 200 µM concentration.
The test system of series [5] is human NSCLC cell line NCI-H1792. Nature of the series: Attenuation of P1-induced IL-6 secretion in NCI-H1792 cells by pre-treatment with plant-produced cytokines (ELISA). Particulars: control protein bearing an identical His-tag. Type of series: cell-based.

Some results are limits rather than exact numbers.

As to `CC[C@H](C)[C@H](NC(=O)[C@H](Cc1c[nH]cn1)NC(=O)[C@H](CS)NC(=O)[C@H](CCCNC(=N)N)NC(=O)[C@H](CS)NC(=O)[C@H](Cc1ccc(O)cc1)NC(=O)[C@H](CC(C)C)NC(=O)[C@H](CS)NC(=O)[C@H](CS)NC(=O)[C@H](CO)NC(=O)[C@H](C)NC(=O)CNC(=O)CNC(=O)[C@H](Cc1ccccc1)NC(=O)CNC(=O)[C@H](CO)NC(=O)CNC(=O)[C@H](CCCNC(=N)N)NC(=O)[C@H](CCCNC(=N)N)NC(=O)[C@H](CCCNC(=N)N)NC(=O)[C@H](CCC(N)=O)NC(=O)[C@H](CCCNC(=N)N)NC(=O)[C@H](CCCNC(=N)N)NC(=O)[C@H](CCCCN)NC(=O)[C@H](CCCCN)NC(=O)[C@H](CCCNC(=N)N)NC(=O)CNC(=O)[C@H](Cc1ccc(O)cc1)NC(C)=O)C(=O)N[C@@H](CC(=O)O)C(=O)N[C@@H](Cc1c[nH]cn1)C(=O)N1CCC[C@H]1C(=O)N[C@@H](CC(N)=O)C(=O)N1CCC[C@H]1C(=O)N[C@@H](CCCCN)C(=O)NCC(=O)N[C@@H](Cc1ccccc1)C(=O)N[C@@H](CS)C(=O)N[C@@H](CC(=O)O)C(=O)N[C@@H](CC(C)C)C(=O)N[C@@H](CCCCN)C(=O)NCC(=O)N[C@@H](CCCCN)C(=O)N[C@@H](Cc1ccc(O)cc1)C(N)=O` [P1], in series [1], the “IL-6 secretion on treatment with peptide (in words)” value is listed as “strongly increased”. The “stimulation of the intrinsic secretion of IL-6” value in series [2] (normalized to PBS control) was > 4 fold. In series [3], the CC50 is 11 µM.
For the compound `CC[C@H](C)[C@H](NC(=O)[C@H](CCCNC(=N)N)NC(=O)[C@H](CS)NC(=O)[C@H](CCCNC(=N)N)NC(=O)[C@H](CS)NC(=O)[C@H](Cc1ccc(O)cc1)NC(=O)[C@H](CC(C)C)NC(=O)[C@H](CS)NC(=O)[C@H](CS)NC(=O)[C@H](CO)NC(=O)[C@H](C)NC(=O)CNC(=O)CNC(=O)[C@H](Cc1ccccc1)NC(=O)CNC(=O)[C@H](CO)NC(=O)CNC(=O)[C@H](CCCNC(=N)N)NC(=O)[C@H](CCCNC(=N)N)NC(=O)[C@H](CCCNC(=N)N)NC(=O)[C@H](CCC(N)=O)NC(=O)[C@H](CCCNC(=N)N)NC(=O)[C@H](CCCNC(=N)N)NC(=O)[C@H](CCCCN)NC(=O)[C@H](CCCCN)NC(=O)[C@H](CCCNC(=N)N)NC(=O)CNC(=O)[C@H](Cc1ccc(O)cc1)NC(C)=O)C(=O)N[C@@H](CC(=O)O)C(=O)N[C@@H](Cc1c[nH]cn1)C(=O)N1CCC[C@H]1C(=O)N[C@@H](CC(N)=O)C(=O)N1CCC[C@H]1C(=O)N[C@@H](CCCCN)C(=O)NCC(=O)N[C@@H](Cc1ccccc1)C(=O)N[C@@H](CS)C(=O)N[C@@H](CC(=O)O)C(=O)N[C@@H](CC(C)C)C(=O)N[C@@H](CCCCN)C(=O)NCC(=O)N[C@@H](CCCCN)C(=O)N[C@@H](Cc1ccc(O)cc1)C(N)=O` [P2], the “effect against the virus-infected cells” value in series [4] is given as “no detectable effect”. In addition, the “stimulation / induction of IL-6 secretion (in words)” value in series [2] was “no IL-6 induction”. In addition, in series [3], the CC50 was > 200 µM.
For the compound “GFP: His-tag containing plant-produced Green Fluorescent Protein used as control protein [reference compound]”, in series [5], the “attenuation of P1-induced IL-6 expression (in words)” value was “did not result in any significant attenuation”.
Consider “YGRKKRRQRRRGSG (HIV-Tat peptide sequence) [TAT sequence peptide, 42, reference compound]”, for which, in series [2], the “stimulation / induction of IL-6 secretion (in words)” value is “not”.
